The test system of one assay is mutant SDHB protein. The assay can be described thus: Immunoprecipitation of mutant SDHB: ubiquitination and Hsp90 binding. The format is cell-based, human. Conditions: immunoprecipitated ΔSDHB-R49Q (FIG. 14E). As for the experimental part:
Protein was extracted from cell cultures using IP lysis buffer with Halt proteinase inhibitor cocktail (Thermo Scientific). Four hundred microgram of total protein was precipitated with Flag antibody (1:200, Origene) using a DynaBeads Protein G immunoprecipitation kit (Invitrogen). Proteins were precipitated overnight at 4° C. and eluted for Western blot analysis.

For the next assay, the system named is ΔSDHB-L65P. The assay can be described thus: ΔSDHB-L65P protein half-life through CHX treatment, Western blot, HeLa cells. The assay is classed as cell-based, human. Conditions: L65P mutant. How it is done: Western blot analysis was performed as previously described with minor modifications (Zhuang et al, 2011). Microdissected tumor tissue and cell pellets were extracted for protein using RIPA lysis buffer supplemented with Halt proteinase inhibitor cocktail (Thermo Scientific, Rockford, Ill.). Protein was vortexed at 4° C. for 20 min and centrifuged in 12,000 g for 10 min at 4° C. Supernatant was collected and protein quantity was identified through a Bio-Rad (Hercules, Calif.) Protein Assay kit. Equal amount of proteins were separated on NuPAGE 4-12% Bis-Tris gel (Invitrogen, Carlsbad, Calif.) and transferred to PVDF membranes (Invitrogen). Membranes were blocked in 5% skim dried milk in PBST and blotted with primary antibody. Protein expression was identified through chemiluminescence kit (Thermo Scientific). The following antibodies were used: SDHA (1:1,000, Cell Signaling Technology, Beverly, Mass.), SDHB (1:1,000, Sigma-Aldrich, St. Louis Mo.), Flag (1:2,000, Origene, Rockville, Md.), Ubiquitin (1:1,000, Abcam, Cambridge, Mass.), HA (1:2,000, Origene), Hsp90 (1:1,000, Cell Signaling Technology) and β-Actin (1:1,000, Santa Cruz Biotechnology, Inc., Santa Cruz, Calif.).
HeLa cells were maintained in DMEM containing 10% FBS (Invitrogen). Cells were transfected with SDHB vectors by FuGENE 6 transfection reagent (Roche, Indianapolis, Ind.). Medium was changed 4 hours after transfection and cells were maintained 48 hours before cycloheximide (20 μg/mL, Sigma-Aldrich) treatment.
Ubiquitin-HA vector was described previously (Kamitani et al. (1997)). Human wild type SDHB gene was cloned into pCMV6-Entry vector (Origene). Hot spot missense mutations in SDHB related PHEOs/PGLs based on previous findings (Van Nederveen et al. (2006); Henderson et al. (2009); Pawlu et al. (2005)). Mutagenesis was performed based on wild type SDHB vector using a Quikchange Lightning Site-Directed Mutagenesis Kit (Agilent, Santa Clara, Calif.). For each mutant, the sequence of SDHB gene was verified through sequencing the entire coding region of the gene. Vectors were purified through PureLink HiPure Plasmid Maxiprep kit (Invitrogen) for transfection and cell free protein expression.

For a further assay, the system named is mutant GBA (L444P). The assay can be described thus: Co-immunoprecipitation of GBA: ubiquitination and chaperonin binding. The following applies: L444P mutants.
A further assay deals with HDACs. The assay can be described thus: Western blot for acetylated histone 3 in type 1 GD fibroblasts. The following applies: GD type 1 fibroblasts, 2.5 μM. For orientation: In western blotting, separated proteins are transferred to a membrane and probed.
The subject of the next assay is acetylated histone 3. The assay can be described thus: Western blot for acetylated histone 3 in DAOY xenografts. The format is in vivo, SCID mice.
The subject of a further assay is mutant VHL protein. The assay can be described thus: Immunoprecipitation assay for chaperonin binding to mutant VHL protein. The format is cell-based, human. The following applies: FIG. 10D. As for the experimental part:
200 μg of whole-cell lysates were precipitated using DynaBeads Protein G immunopreciptation kit (Invitrogen) with monoclonal antibodies against Flag or HA (1:200, Origene). The beads were washed extensively and eluted with glycine. Precipitated protein was analyzed by western blot.

In another assay the test system is HDAC. The assay can be described thus: HDAC activity assay in DAOY cells. The assay is classed as cell-based. Conditions: DAOY medulloblastoma cells, 1 h treatment. As for the experimental part:
Cultured DAOY cells, a medulloblastoma cell line, were plated in […] flasks. When the cells were 80% confluent, the media was replaced with media containing retinoic acid (RA) (5.0 μm), Trichostatin A (1 μm), SAHA (2.0 μm), LB-205 (5.0 μm), LB-205 ([…]), or PBS control. After 1 h, the cells were washed 3 times with a 0.9% normal saline solution. Cells were lysed in Tissue protein extraction reagent (T-PER) (Pierce Biotechnology; Rockford, Ill.), sonicated, and centrifuged. Nuclear cellular extracts were assayed from 0 to 50 μg per well using HDAC Assay Kit (Active Motif; Carlsbad, Calif.).

Assay [1] concerns missense glucocerebrosidase. Conditions: previously found (REF); cited from earlier work.

The text below walks through data of patent publication US20140235649A1, “USE OF PHOSPHATASE INHIBITORS OR HISTONE DEACETYLASE INHIBITORS TO TREAT DISEASES CHARACTERIZED BY LOSS OF PROTEIN FUNCTION” (LIXTE BIOTECHNOLOGY, INC., priority 2011, published 2014).

SMILES strings stand for the structures. Entries after “also recorded” stand apart in the source; their conditions may differ.

Protocol for HDACs: Cell lines were obtained from the Development and Metabolic Neurology Branch of the National Institute of Neurological Disorders and Stroke (NINDS). Type 1 GD fibroblast is homozygous for N370S mutation. Type II and III GD fibroblasts are homozygous for L444P mutation.
Cell pellets were lysed in T-PER Tissue Protein Extraction Reagent solution (T-PER) (Thermo; Waltham, Mass.), sonicated, and centrifuged. Protein was determined in the supernatant solution by using the Bio-Rad Protein Assay kit (Bio-Rad; Hercules, Calif.). […] Blocking buffer solution was used before immunoblotting with primary antibody. Expression of GBA was determined by Western blotting using monoclonal antibody at a dilution of 1:1,000. Acetylated histone 3 rabbit antibody (Cell Signaling Technology; Beverley, Mass.) was used to detect HDACi function. […] Detection of antibodies was performed with a horseradish peroxidase-conjugated species-specific secondary antibody and an enhanced chemiluminescence system. Densitometric analysis using image software (NIH ImageJ software; Bethesda, Md.) was used to quantify the expression of GBA.
Protocol for mutant GBA (L444P): Immunoprecipitation was performed using DynaBeads Protein G immunoprecipitation kit (Invitrogen; Carlesbad, Calif.). Cells were harvested and extracted for protein using IP lysis buffer (Thermo; Waltham, Mass.). Two hundred microgram of whole cell protein was precipitated in 4° C. with monoclonal antibody against Flag tag (1:200, Origene; Rockville, Md.). Precipitated protein was eluted and analyzed through Western blotting.

As to `O=C(CCCCCNC(=O)c1ccccc1S)Nc1cccnc1` [LB-205], in the assay with mutant SDHB protein, the “Hsp90 binding to mutant SDHB” value was “also decreased” and the “SDHB mutant protein ubiquitination” value was “decreased SDHB mutant protein ubiquitination”. For the same molecule, in the assay on ΔSDHB-L65P, the “degradation / loss of mutant SDHB protein” value was “decreased the loss of mutant SDHB”. In addition, in the assay with mutant GBA (L444P), the GBA ubiquitination entry is recorded as “decreased GBA ubiquitination”; the “Hsp70 binding to GBA” value is “no change in TCP1 and Hsp70 binding”; the “TCP1 binding to GBA” value is given as “without changing the level of TCP1 binding”. Further, the “HDAC inhibition (acetylated histone 3)” value with HDACs is “inhibited HDACs”. Moreover, the “HDAC inhibition (acetylated histone 3) lasting longer than that of SAHA” value in the assay on acetylated histone 3 (DAOY xenografts, in vivo) is given as “at least 4 hours”. Moreover, the “effectiveness by Western blotting for Ac-H3” value with acetylated histone 3 (FIG. 4D) is given as “longer effectiveness”. Further, the “Hsp90 affinity to VHL mutants” value in the assay with mutant VHL protein is listed as “decreased”. Moreover, the HDAC inhibition entry in the assay with HDAC is “dose-dependent HDAC inhibition”. For the same molecule, the “co-translational degradation of missense glucocerebrosidase” value in assay [1] is recorded as “protect missense glucocerebrosidase from co-translational degradation”.

`O=C(CCCCCCC(=O)Nc1ccccc1)NO` [SAHA, suberoylanilide hydroxamic acid, reference compound]: in the assay with mutant SDHB protein, the “Hsp90 binding to mutant SDHB” value is “also decreased” and the “SDHB mutant protein ubiquitination” value is reported as “decreased SDHB mutant protein ubiquitination”. Also, in the assay on ΔSDHB-L65P, the “degradation / loss of mutant SDHB protein” value is “slowed the degradation of mutant protein; also recorded: decreased the loss of mutant SDHB”. Besides, in the assay with mutant GBA (L444P), the GBA ubiquitination entry is “decreased GBA ubiquitination”; the “Hsp70 binding to GBA” value was “no change in TCP1 and Hsp70 binding”; the “TCP1 binding to GBA” value is reported as “without changing the level of TCP1 binding”. In addition, the “Hsp90 affinity to VHL mutants” value in the assay on mutant VHL protein is “decreased”.
